Measured values reported in patent US9228089B2, “Polyester polyamine and polyester polyquaternary ammonium corrosion inhibitors” (AKZO NOBEL CHEMICALS INTERNATIONAL B.V., priority 2010, dated 2016).

Columns and labels:
[1] = bubble test, corrosion rate monitored by linear polarization resistance (LPR) in CO2-saturated synthetic Forties brine; conditions: 80 ppm active inhibitor, 54° C.
Protocol: The tests were carried out using the well-known “bubble test” method, see for instance the discussion in NACE International, Vol. 46, No. 5, pp 46-51 (May 2007), where corrosion rate is monitored by linear polarization resistance (LPR). First a baseline corrosion rate in the medium is established, and then corrosion rates with different amounts of inhibitor added are measured.
The detailed conditions for the tests were as follows: • Temperature 54° C. • CO2 CO2 Saturated at ambient pressure (˜0.9 bara partial pressure) • Liquids 100% Typical “Forties” (North Sea water) synthetic brine as shown below: • Chloride=42539 mg/l • Sulphate=0 mg/l • Barium=173 mg/l • Calcium=1979 mg/l • Strontium=351 mg/l • Magnesium=377 mg/l • Sodium=24973 mg/l • Potassium=341 mg/l • Bicarbonate=200 mg/l • Electrode Fabricated from AISI 1018 (UNS G10180), polished to 600 grit finish, degreased rinsed and dried • Inhibitor Concentration 4 hour precorrosion without inhibitor, then dose with 10 ppm of inhibitor and evaluate corrosion rate for at least 8 h, then add inhibitor so that the next level of total inhibitor dosage is reached according to Table 1. After each addition the corrosion rate is measured for at least 8 h. • Gas and partial pressure Ambient pressure test. […]

[2] = example 6 of PCT/EP2010/059325, cited from earlier work

## C12-C16 Cocoalkyl di-methyl benzyl quaternary amine
[1]
  % Protection at 80 ppm: 89.6%
[2]; 20 ppm
  % protection at 20 ppm: −28%
[2]; 50 ppm
  % protection at 50 ppm: 38%
